Values after ≈ are worked out from the molar mass of the structure shown.
What was measured:
Type in all cases: functional
[1] = test system: Enterococcus faecalis; assay: Antibacterial activity against Enterococcus faecalis after 24 hr by two-fold serial dilution method
[2] = test system: Aspergillus niger; assay: Antifungal activity against Aspergillus niger after 72 to 96 hr by two-fold serial dilution method
[3] = test system: Candida; assay: Antifungal activity against Candida-51 after 72 to 96 hr by two-fold serial dilution method
[4] = test system: Bacillus subtilis; assay: Antibacterial activity against Bacillus subtilis after 24 hr by two-fold serial dilution method
[5] = test system: Pseudomonas aeruginosa; assay: Antibacterial activity against Pseudomonas aeruginosa after 24 hr by twofold serial dilution method
[6] = test system: Staphylococcus aureus; assay: Antibacterial activity against Staphylococcus aureus after 24 hr by two-fold serial dilution method
[7] = test system: Candida; assay: Antifungal activity against Candida-6 after 72 to 96 hr by two-fold serial dilution method
[8] = test system: Aspergillus flavus; assay: Antifungal activity against Aspergillus flavus after 72 to 96 hr by two-fold serial dilution method

MIC [1]	MIC [2]	MIC [3]	MIC [4]	MIC [5]	MIC [6]	MIC [7]	MIC [8]	SMILES
50 µg/mL (≈ 159 µM)	50 µg/mL (≈ 159 µM)	25 µg/mL (≈ 79.3 µM)	12.5 µg/mL (≈ 39.6 µM)	25 µg/mL (≈ 79.3 µM)	12.5 µg/mL (≈ 39.6 µM)	50 µg/mL (≈ 159 µM)	50 µg/mL (≈ 159 µM)	CC(=O)N1C(c2ccco2)CC(=O)C(C(C)C)C1c1ccco1 (stereo unspecified)
> 100 µg/mL	> 100 µg/mL	25 µg/mL (≈ 91.5 µM)	100 µg/mL (≈ 366 µM)	50 µg/mL (≈ 183 µM)	> 100 µg/mL	50 µg/mL (≈ 183 µM)	> 100 µg/mL	CC(C)C1C(=O)CC(c2ccco2)NC1c1ccco1 (stereo unspecified)
50 µg/mL (≈ 132 µM)	25 µg/mL (≈ 66.2 µM)	12.5 µg/mL (≈ 33.1 µM)	12.5 µg/mL (≈ 33.1 µM)	50 µg/mL (≈ 132 µM)	25 µg/mL (≈ 66.2 µM)	12.5 µg/mL (≈ 33.1 µM)	25 µg/mL (≈ 66.2 µM)	CC(C)C1C(=O)CC(c2ccco2)N(C(=O)c2ccccc2)C1c1ccco1 (stereo unspecified)
50 µg/mL (≈ 152 µM)	50 µg/mL (≈ 152 µM)	50 µg/mL (≈ 152 µM)	12.5 µg/mL (≈ 37.9 µM)	25 µg/mL (≈ 75.9 µM)	25 µg/mL (≈ 75.9 µM)	12.5 µg/mL (≈ 37.9 µM)	25 µg/mL (≈ 75.9 µM)	CCC(=O)N1C(c2ccco2)CC(=O)C(C(C)C)C1c1ccco1 (stereo unspecified)
50 µg/mL (≈ 173 µM)	100 µg/mL (≈ 347 µM)	50 µg/mL (≈ 173 µM)	50 µg/mL (≈ 173 µM)	100 µg/mL (≈ 347 µM)	50 µg/mL (≈ 173 µM)	50 µg/mL (≈ 173 µM)	25 µg/mL (≈ 86.7 µM)	CC(C)C1/C(=N/O)CC(c2ccco2)NC1c1ccco1 (stereo unspecified)
25 µg/mL (≈ 83 µM)	50 µg/mL (≈ 166 µM)	50 µg/mL (≈ 166 µM)	25 µg/mL (≈ 83 µM)	50 µg/mL (≈ 166 µM)	50 µg/mL (≈ 166 µM)	25 µg/mL (≈ 83 µM)	50 µg/mL (≈ 166 µM)	CC(C)C1C(=O)CC(c2ccco2)N(C=O)C1c1ccco1 (stereo unspecified)

SMILES	MIC [1]	MIC [2]	MIC [3]	MIC [4]	MIC [5]	MIC [6]	MIC [7]	MIC [8]
C[C@@H]1[C@H](O)[C@@H](C)/C=C/C=C/C=C/C=C/C=C/C=C/C=C/[C@H](O[C@@H]2O[C@H](C)[C@@H](O)[C@H](N)[C@@H]2O)C[C@@H]2O[C@](O)(C[C@@H](O)C[C@@H](O)[C@H](O)CC[C@@H](O)C[C@@H](O)CC(=O)O[C@H]1C)C[C@H](O)[C@H]2C(=O)O [AMPHOTERICIN B]	–	50 µg/mL (≈ 54.1 µM)	25 µg/mL (≈ 27.1 µM)	–	–	–	25 µg/mL (≈ 27.1 µM)	50 µg/mL (≈ 54.1 µM)
CN[C@@H]1[C@H](O[C@H]2[C@H](O[C@H]3[C@H](O)[C@@H](O)[C@H](N=C(N)N)[C@@H](O)[C@@H]3N=C(N)N)O[C@@H](C)[C@]2(O)C=O)O[C@@H](CO)[C@H](O)[C@H]1O [STREPTOMYCIN]	50 µg/mL (≈ 86 µM)	–	–	12.5 µg/mL (≈ 21.5 µM)	25 µg/mL (≈ 43 µM)	25 µg/mL (≈ 43 µM)	–	–

Source: ChEMBL document CHEMBL3045359, “Synthesis, stereochemistry, and antimicrobial evaluation of t(3)-isopropyl-r(2), c(6)-di-2-furanylpiperidin- 4-one and its derivatives” (2006)
